Reference: patent publication US7498353B2, “Heterocyclic anti-viral compounds comprising metabolizable moieties and their uses” (priority 2005, dated 2009)

What was measured:
[1] = system: HCV replicon in 5-2 Luc replicon-comprising cells; experiment: HCV replicon assay, luciferase readout (HEPC_REPLICON-LUC); type: cell-based; settings: Hepatitis C virus; 5-2 Luc replicon cells, 50% reduction in luciferase emission; read-out: HEPC_REPLICON-LUC Result Value (IC50)
Source text: In one embodiment, the inhibitory activity of the metabolically active agent of the prodrug can be confirmed in a replicon assay that assesses the ability of a test compound to block or inhibit HCV replication in replicon cells. One example of a suitable replicon assay is the liver cell-line Huh 7-based replicon assay described in Lohmann et al., 1999, Science 285:110-113. A specific example of this replicon assay which utilizes luciferase translation is provided in the Examples Section. In one embodiment of this assay, the amount of test prodrug that yields a 50% reduction in translation as compared to a control cell (IC50) may be determined.
The inhibitory activity of certain prodrugs of the invention, which may inhibit HCV translation or replication prior to metablism and/or are metabolized into active agents, was confirmed using an HCV replicon assay. The HCV replicon can include such features as the HCV 5′ untranslated region including the HCV IRES, the HCV 3′ untranslated region, selected HCV genes encoding HCV polypeptides, selectable markers, and a reporter gene such as luciferase, GFP, etc. In the assay, actively dividing 5-2 Luc replicon-comprising cells (obtained from Ralf Bartenschlager; see Lohmann et al., 1999, Science 285:110-113) were seeded at a density of between about 5,000 and 7,500 cells/well onto 96 well plates (about 90 μl of cells per well) and incubated at 37° C. and 5% CO2 for 24 hours. Then, the test prodrug (in a volume of about 10 μl) was added to the wells at various concentrations and the cells were incubated for an additional 24-48 hours before luciferase assay. The media was aspirated from each well and Bright-Glo (Promega, Madison, Wis.) luciferase assay reagents were added to each well according to the manufacturer's instructions. Briefly, the Bright-Glo reagent was diluted 1:1 with PBS and 100 μl of diluted reagent was added to each well. After 5 min of incubation at room temperature, luciferin emission was quantified with a luminometer. In this assay, the amount of test prodrug that yielded a 50% reduction in luciferase emission (IC50) was determined. This IC50 value may represent the antiviral activity of the prodrug itself, the activity of prodrug transformed into its active metabolized form, or a combination of the two.

[2] = system: HCV NS5A protein in 9-13 replicon cells; experiment: Quantitative Western blot replicon assay (HEPC_REPLICON-ICWESTERN); type: cell-based, Hepatitis C virus (HCV); settings: Hepatitis C virus; 9-13 replicon cells, 50% reduction in NS5A protein; read-out: HEPC_REPLICON-ICWESTERN Result Value (IC50)
Method: Alternatively, the inhibitory activity of the metabolically active agents of the prodrugs can be confirmed using a quantitative Western immunoblot assay utilizing antibodies specific for HCV non-structural proteins, such as NS3, NS4A NS5A and NS5B. In one embodiment of this assay, replicon cells are treated with varying concentrations of test prodrug to determine the concentration of the metabolically active agent of the test prodrug that yields a 50% reduction in the amount of a non-structural protein produced as compared to a control sample (IC50). A single non-structural protein may be quantified or multiple non-structural proteins may be quantified. Antibodies suitable for carrying out such immunoblot assays are available commercially (e.g., from BIODESIGN International, Saco, Me.).
Certain prodrugs of the invention, which may inhibit HCV translation or replication prior to metablism and/or are metabolized into active agents, were also tested for their ability to inhibit HCV replication using a quantitative Western blot analysis with antibodies specific for the HCV NS5A or other non-structural proteins. Actively dividing 9-13 replicon cells were seeded into 6-well plates at a density of 1×10^5 cells/well in a volume of 2 ml/well and incubated at 37° C. and 5% CO2 for 24 hours. Various concentrations of test prodrugs (in a volume of 10 ul) were added to the wells and the cells incubated for another 48 hours. Protein samples were prepared from the cultured cells, resolved on a SDS-PAGE gel and transferred to a nitrocellulose membrane. The membrane was blocked with 5% non-fat milk in PBS for 1 hour at room temperature. Primary antibody (anti NS5A antibody; BIODESIGN International, Saco, Me.) incubation was performed for 1 hour at room temperature, after which the membrane was washed 3 times (for 15 min per time) with PBST (PBS plus 0.1% Tween 20). Horseradish peroxidase conjugated secondary antibody incubation was performed for 1 hour at room temperature and the membrane was washed 3 times (for 15 min per time) with PBST. The membrane was then soaked in substrate solution (Pierce) and exposed to a film or quantified using an imager. In this assay, the amount of test prodrug that is believed to be transformed into an active agent under the given conditions that yielded a 50% reduction in the amount of NS5A protein translated as compared to a control sample (IC50) was determined.

Row | SMILES | IC50 [1] [µM] | IC50 [2] [µM]
1 | O=C(C(Cl)Cl)N(CCP(=O)(O)O)c1cccc(-c2cc(-c3c(Cl)cccc3Cl)no2)c1 [Cpd. No. 2, 2-(2,2-Dichloro-N-(3-(3-(2,6-dichlorophenyl)isoxazol-5-yl)phenyl)acetamido)ethylphosphonic acid] | > 20 | > 20
2 | CC(C)C(N)C(=O)CCN(C(=O)C(Cl)Cl)c1ccnc(-c2cc(-c3c(Cl)cccc3Cl)no2)c1 (centres unmarked) [Cpd. No. 3, N-(4-Amino-5-methyl-3-oxohexyl)-2,2-dichloro-N-(2-(3-(2,6-dichlorophenyl)isoxazol-5-yl)pyridin-4-yl)acetamide] | < 1 | < 1
3 | NC(CCC(=O)CCN(C(=O)C(Cl)Cl)c1ccnc(-c2cc(-c3c(Cl)cccc3Cl)no2)c1)C(=O)O (centres unmarked) [Cpd. No. 5, 2-Amino-7-(2,2-dichloro-N-(2-(3-(2,6-dichlorophenyl)isoxazol-5-yl)pyridin-4-yl)acetamido)-5-oxoheptanoic acid] | < 1 | < 1
4 | COCN(C(=O)C(Cl)Cl)c1ccnc(-c2cc(-c3c(Cl)cccc3Cl)no2)c1 [Cpd. No. 7, 2,2-Dichloro-N-(2-(3-(2,6-dichlorophenyl)isoxazol-5-yl)pyridin-4-yl)-N-(methoxymethyl)acetamide] | 1 to 20 | < 1
5 | CC(C)OCN(C(=O)C(Cl)Cl)c1ccnc(-c2cc(-c3c(Cl)cccc3Cl)no2)c1 [Cpd. No. 9, 2,2-Dichloro-N-(2-(3-(2,6-dichlorophenyl)isoxazol-5-yl)pyridin-4-yl)-N-(isopropoxymethyl)acetamide] | > 20 | 
6 | NCCN(C(=O)C(Cl)Cl)c1cccc(-c2cc(-c3c(Cl)cccc3Cl)no2)c1 [Cpd. No. 16, N-(2-Aminoethyl)-2,2-dichloro-N-(3-(3-(2,6-dichlorophenyl)isoxazol-5-yl)phenyl)acetamide] | 1 to 20 | 1 to 20
7 | CC(C)[C@H](NC(=O)OC(C)(C)C)C(=O)N[C@H](CN(C(=O)C(Cl)Cl)c1cccc(-c2cc(-c3c(Cl)cccc3Cl)no2)c1)C(C)C [Cpd. No. 27, tert-Butyl (S)-1-((S)-1-(2,2-Dichloro-N-(3-(3-(2,6-dichlorophenyl)isoxazol-5-yl)phenyl)acetamido)-3-methylbutan-2-ylamino)-3-methyl-1-oxobutan-2-ylcarbamate] | > 20 | 
8 | CC[C@H](C)[C@H](NC(=O)OC(C)(C)C)C(=O)N[C@H](CN(C(=O)C(Cl)Cl)c1cccc(-c2cc(-c3c(Cl)cccc3Cl)no2)c1)C(C)C [Cpd. No. 28, tert-Butyl (2S,3S)-1-((S)-1-(2,2-Dichloro-N-(3-(3-(2,6-dichlorophenyl)isoxazol-5-yl)phenyl)acetamido)-3-methylbutan-2-ylamino)-3-methyl-1-oxopentan-2-ylcarbamate] | > 20 | 
9 | CC[C@H](C)[C@H](NC(=O)OC(C)(C)C)C(=O)NCCN(C(=O)C(Cl)Cl)c1cccc(-c2cc(-c3c(Cl)cccc3Cl)no2)c1 [Cpd. No. 29, tert-Butyl (2S,3S)-1-(2-(2,2-Dichloro-N-(3-(3-(2,6-dichlorophenyl)isoxazol-5-yl)phenyl)acetamido)ethylamino)-3-methyl-1-oxopentan-2-ylcarbamate] | > 20 | 
10 | CC(C)[C@H](NC(=O)OC(C)(C)C)C(=O)NCCN(C(=O)C(Cl)Cl)c1cccc(-c2cc(-c3c(Cl)cccc3Cl)no2)c1 [Cpd. No. 30, (S)-tert-Butyl 1-(2-(2,2-Dichloro-N-(3-(3-(2,6-dichlorophenyl)isoxazol-5-yl)phenyl)acetamido)ethylamino)-3-methyl-1-oxobutan-2-ylcarbamate] | > 20 | 
11 | CC[C@H](C)[C@H](N)C(=O)NCCN(C(=O)C(Cl)Cl)c1cccc(-c2cc(-c3c(Cl)cccc3Cl)no2)c1 [Cpd. No. 38, (2S,3S)-2-Amino-N-(2-(2,2-dichloro-N-(3-(3-(2,6-dichlorophenyl)isoxazol-5-yl)phenyl)acetamido)ethyl)-3-methylpentanamide] |  | 1 to 20
12 | CC(C)[C@H](N)CN(C(=O)C(Cl)Cl)c1cccc(-c2cc(-c3c(Cl)cccc3Cl)no2)c1 [Cpd. No. 39, (S)-N-(2-Amino-3-methylbutyl)-2,2-dichloro-N-(3-(3-(2,6-dichlorophenyl)isoxazol-5-yl)phenyl)acetamide] |  | 1 to 20
13 | CC(C)[C@@H](CN(C(=O)C(Cl)Cl)c1cccc(-c2cc(-c3c(Cl)cccc3Cl)no2)c1)NC(=O)[C@@H](N)c1ccccc1 [Cpd. No. 40, N-((S)-2-((S)-2-Amino-2-phenylacetamido)-3-methylbutyl)-2,2-dichloro-N-(3-(3-(2,6-dichlorophenyl)isoxazol-5-yl)phenyl)acetamide] |  | > 20
14 | CC(C)[C@@H](CN(C(=O)C(Cl)Cl)c1cccc(-c2cc(-c3c(Cl)cccc3Cl)no2)c1)NC(=O)[C@H](N)c1ccccc1 [Cpd. No. 41, N-((S)-2-((R)-2-Amino-2-phenylacetamido)-3-methylbutyl)-2,2-dichloro-N-(3-(3-(2,6-dichlorophenyl)isoxazol-5-yl)phenyl)acetamide] |  | > 20
15 | CC(C)[C@@H](CN(C(=O)C(Cl)Cl)c1cccc(-c2cc(-c3c(Cl)cccc3Cl)no2)c1)NC(=O)C1CC(O)CN1 (stereo partly drawn) [Cpd. No. 42, N-((S)-1-(2,2-Dichloro-N-(3-(3-(2,6-dichlorophenyl)isoxazol-5-yl)phenyl)acetamido)-3-methylbutan-2-yl)-4-hydroxypyrrolidine-2-carboxamide] |  | > 20
16 | CNCC(=O)N[C@H](CN(C(=O)C(Cl)Cl)c1cccc(-c2cc(-c3c(Cl)cccc3Cl)no2)c1)C(C)C [Cpd. No. 43, (S)-2,2-Dichloro-N-(3-(3-(2,6-dichlorophenyl)isoxazol-5-yl)phenyl)-N-(3-methyl-2-(2-(methylamino)acetamido)butyl)acetamide] |  | 1 to 20
17 | CC(C)C(NC(=O)C(NC(=O)OC(C)(C)C)C(C)C)C(=O)CCN(C(=O)C(Cl)Cl)c1ccnc(-c2cc(-c3c(Cl)cccc3Cl)no2)c1 (centres unmarked) [Cpd. No. 47, tert-Butyl 1-(6-(2,2-Dichloro-N-(2-(3-(2,6-dichlorophenyl)isoxazol-5-yl)pyridin-4-yl)acetamido)-2-methyl-4-oxohexan-3-ylamino)-3-methyl-1-oxobutan-2-ylcarbamate] | < 1 | < 1
18 | CC(C)C(N)C(=O)NC(C(=O)CCN(C(=O)C(Cl)Cl)c1ccnc(-c2cc(-c3c(Cl)cccc3Cl)no2)c1)C(C)C (centres unmarked) [Cpd. No. 48, 2-Amino-N-(6-(2,2-dichloro-N-(2-(3-(2,6-dichlorophenyl)isoxazol-5-yl)pyridin-4-yl)acetamido)-2-methyl-4-oxohexan-3-yl)-3-methylbutanamide] | < 1 | < 1
19 | CC(C)[C@@H](N)C(=O)CCN(C(=O)C(Cl)Cl)c1ccnc(-c2cc(-c3c(Cl)cccc3Cl)no2)c1 [Cpd. No. 61, (R)-N-(4-Amino-5-methyl-3-oxohexyl)-2,2-dichloro-N-(2-(3-(2,6-dichlorophenyl)isoxazol-5-yl)pyridin-4-yl)acetamide] | < 1 | 
